Measured values published in patent US6750322B2, “Guanosine triphosphate (GTP) binding protein-coupled receptor proteins” (Banyu Pharmaceutical Co., Ltd., priority 1998, dated 2004).

Columns and labels:
[1] = molecular target: T1, rat BG2 (Rattus norvegicus, UniProt Q9QYN8); assay: N-α-methylhistamine binding experiment on membrane fraction of COS7 cells expressing rat BG2; set-up: succeeded in isolating a full-length cDNA (rat BG2 cDNA) encoding a rat G protein-coupled receptor; expressed in transfected cells; host or cells: COS7 cells (membrane fraction)
T1 sequence (Q9QYN8 1-413 isoform Q9QYN8-2): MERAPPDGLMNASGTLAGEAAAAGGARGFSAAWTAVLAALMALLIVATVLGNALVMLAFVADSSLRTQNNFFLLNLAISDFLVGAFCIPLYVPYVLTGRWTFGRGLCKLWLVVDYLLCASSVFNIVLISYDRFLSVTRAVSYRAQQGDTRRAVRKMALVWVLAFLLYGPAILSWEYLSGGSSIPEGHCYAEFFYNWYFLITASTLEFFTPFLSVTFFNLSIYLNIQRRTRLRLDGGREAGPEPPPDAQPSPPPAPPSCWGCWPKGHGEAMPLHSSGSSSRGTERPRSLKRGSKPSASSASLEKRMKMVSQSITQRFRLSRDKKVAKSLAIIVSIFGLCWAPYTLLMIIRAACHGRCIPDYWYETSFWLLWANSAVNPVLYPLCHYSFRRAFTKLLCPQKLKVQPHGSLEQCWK
Method: (§1) Vectors expressing each BG2 receptor were prepared using pEF1x (Biochemical and Biophysical Research Communications, 1998, 250:68-71). Each BG2 expression vector was introduced into COS7 cells by lipofection method. Genes were introduced using Lipofectamine PLUS reagent (GIBCO-BRL) according to the attached manual.
(§2) The cells were cultured at 37° C. for 24 hours in Dulbecco MEM medium (Asahi Techno Glass) to which fetal calf serum (Sigma) was added at a final concentration of 10%, in an incubator in which CO2 concentration was adjusted to 5%. Then, the cells were used for preparing a membrane fraction for the histamine binding experiment.
(§3) The cells into which each BG2 receptor-expressing vector was introduced were crushed in 50 mM Tris-HCl pH 7.4 solution according to the standard method, uncrushed cells were removed by centrifuging at 1,000 g for 10 min, and supernatant was centrifuged at 100,000 g for 10 min to obtain a membrane fraction. The membrane fraction was resuspended in the 50 mM Tris-HCl pH 7.4 solution and centrifuged twice at 100,000 g for 10 min to finally obtain the membrane fraction. The membrane fraction obtained in this manner was suspended in 50 mM Tris-HCl pH 7.4 solution and used for the binding experiment.
(§4) By using N-α-methylhistamine, a histamine analogue agonist, the binding experiment was conducted and the binding constants were determined (Table 2). […]

[2] = molecular target: T2, rat BG2-2 (Rattus norvegicus, UniProt Q9QYN8); assay: N-α-methylhistamine binding experiment on membrane fraction of COS7 cells expressing rat BG2-2; set-up: Vectors expressing each BG2 receptor were prepared using pEF1x; expressed in transfected cells; host or cells: COS7 cells (membrane fraction)
T2 sequence (Q9QYN8 whole entry): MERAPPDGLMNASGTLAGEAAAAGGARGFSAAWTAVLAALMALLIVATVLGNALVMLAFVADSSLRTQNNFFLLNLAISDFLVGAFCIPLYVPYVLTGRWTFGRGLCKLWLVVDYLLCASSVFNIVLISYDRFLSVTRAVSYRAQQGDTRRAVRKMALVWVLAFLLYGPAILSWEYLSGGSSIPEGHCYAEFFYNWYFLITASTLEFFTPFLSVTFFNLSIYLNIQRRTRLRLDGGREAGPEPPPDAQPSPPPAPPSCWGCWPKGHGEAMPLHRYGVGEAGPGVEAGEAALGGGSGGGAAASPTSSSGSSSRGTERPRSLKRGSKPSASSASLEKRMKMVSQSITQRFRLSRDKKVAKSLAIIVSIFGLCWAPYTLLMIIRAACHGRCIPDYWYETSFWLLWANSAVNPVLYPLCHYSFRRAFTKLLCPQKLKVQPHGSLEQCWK
Method: as §1, §2, §3, §4

[3] = molecular target: T3, human BG2 (Homo sapiens, UniProt Q9Y5N1); assay: N-α-methylhistamine binding experiment on membrane fraction of COS7 cells expressing human BG2; set-up: the G protein-coupled receptor protein encoded by the isolated human BG2 cDNA, the present inventors prepared cells expressing the protein; expressed in transfected cells
T3 sequence (Q9Y5N1 1-453 isoform Q9Y5N1-2): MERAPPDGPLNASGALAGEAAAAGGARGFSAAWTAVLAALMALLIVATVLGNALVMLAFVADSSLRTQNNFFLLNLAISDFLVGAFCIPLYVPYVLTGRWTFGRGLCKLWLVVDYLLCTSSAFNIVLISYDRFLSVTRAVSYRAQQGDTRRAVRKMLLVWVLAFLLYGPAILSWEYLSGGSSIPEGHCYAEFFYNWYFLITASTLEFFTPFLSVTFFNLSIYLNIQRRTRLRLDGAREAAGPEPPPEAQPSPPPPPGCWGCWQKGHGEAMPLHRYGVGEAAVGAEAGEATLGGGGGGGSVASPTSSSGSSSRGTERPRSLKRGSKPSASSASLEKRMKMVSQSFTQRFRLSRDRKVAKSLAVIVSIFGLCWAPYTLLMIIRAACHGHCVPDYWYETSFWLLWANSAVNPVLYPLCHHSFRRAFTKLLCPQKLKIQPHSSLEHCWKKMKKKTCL
Method: as §1, §2, §3, §4

[4] = molecular target: T3, human BG2; assay: Intracellular cAMP measurement by CRE-β-lactamase reporter (method of Zlokarmik et al.) in human BG2-expressing HEK 293 cells with forskolin; type: cell-based; set-up: the G protein-coupled receptor protein encoded by the isolated human BG2 cDNA, the present inventors prepared cells expressing the protein; expressed in transfected cells; host or cells: HEK 293 cells carrying a CRE-beta-lactamase reporter (Aurora), hygromycin-selected; details: drug 1 μg/ml, forskolin 0.5 μM
Method: This human BG2 expression vector was introduced by lipofection method into HEK 293 cells in which β-lactamase gene was ligated downstream of CRE sequence (purchased from Aurora). For introducing the gene, Lipofectamine PLUS reagent (GIBCO-BRL) was used and the experimental manipulation was performed according to the attached manual.
Human BG2-expressing cells were selected by placing cells in a medium containing hygromycin, and cells which grew in the medium were used for a functional assay as human BG2-expressing cells.

[5] = tested on: control cells expressing nothing
Method: The intracellular cAMP concentration was measured by the method of Zlokarmik et al. (Science, 1998, 279:84). In the method of Zlokarmik et al., intracellular cAMP concentration was measured by introducing the gene in which β-lactamase gene was ligated downstream of the sequence that increased transcription activity of a gene downstream thereof dependently on the increase of intracellular cAMP concentration (CRE: cAMP responsible element), and by measuring fluorescence changes in florescent substrates to which an activity of β-lactamase transcribed and translated by the change of cAMP concentration in the cells was added.
Moreover, to measure the decrease of intracellular cAMP concentration mediated by the bound G protein in seven-transmembrane receptors, an activity of β-lactamase depending on the intracellular cAMP concentration was increased by adding forskolin and the decrease of cAMP in cells was measured with the decrease of β-lactamase activity when a ligand was reacted.
The cells in which the above reporter gene and human BG2 were expressed were washed with PBS(−) buffer (GIBCO-BRL) twice, Cell-dissociation buffer (GIBCO-BRL) was added thereto, and the cells were warmed at 37° C. in a CO2 incubator for 3 min and dissociated from a flask by gently tapping the incubation flask. […]

[6] = molecular target: T1, rat BG2; details: 10 μM forskolin; various histamine concentrations; 15 min; rat BG2-expressing cells
Method: (§5) HEK293-CRE-BLA cells (Aurora) were cultured using the D-MEM/F-12 (1:1) mixed medium (GIBCO BRL) containing 10% fetal calf serum and 500 μg/ml G418 at 37° C. in the presence of 5% CO2. Effectene Transfection Reagent (QIAGEN) was used for gene introduction.
(§6) A day prior to the gene introduction, cells were spread on a 6-well plate (NUNC) at 3×10^5 cells/well and 0.4 μg each of the rat BG-2 and BG2-2 expression vectors was introduced into them using 10 μl/well Effectene Transfection Reagent according to the attached manual. The cells were cultured at 37° C. in the presence of 5% CO2 for 48 hours.
(§7) To isolate single cells into which the target gene was introduced, the cells were detached from a Petri dish by trypsin, and spread to a 96-well plate (NUNC) at 2000 to 250 cells/well. The cells were further cultured in selection medium containing hygromycin at 37° C. in the presence of 5% CO2 for 14 days. Wells containing cells consisting of a single colony were only selected and cells were passage-cultured to prepare a stable cell line. […] As a control, rat BG2-expressing cells were prepared in the same manner.

[7] = molecular target: T2, rat BG2-2; details: 10 μM forskolin; various histamine concentrations; 15 min; rat BG2-2-expressing cells
Method: as §5, §6, §7

Compound: CNCCc1c[nH]cn1.Cl.Cl [N-α-methylhistamine, Histamine, N-alpha-methyl-dihydrochloride]
- Kd ([1]; Rat BG2, COS7 membrane fraction, 30° C., 40 min, read-out: Binding Constant): 0.503 ± 0.0198 nM
- specific binding (in words) ([1]; rat BG2, nonspecific with 2 μM N-α-methylhistamine): specifically bound
- Kd ([2]; Rat BG2-2, COS7 membrane fraction, 30° C., 40 min, read-out: Binding Constant): 0.582 ± 0.0261 nM
- specific binding (in words) ([2]; rat BG2-2, nonspecific with 2 μM N-α-methylhistamine): specifically bound
- Kd ([3]; Human BG2, COS7 membrane fraction, 30° C., 40 min, read-out: Binding Constant): 0.548 ± 0.0751 nM
- specific binding (in words) ([3]; human BG2, nonspecific with 2 μM N-α-methylhistamine): specifically bound

Compound: C[N+](C)(C)CCOC(N)=O [carbachol]
- reduction of intracellular cAMP concentration (in words) [4]: did not reduce intracellular cAMP concentration

Compound: NCCc1ccc(O)c(O)c1 [dopamine]
- reduction of intracellular cAMP concentration (in words) [4]: did not reduce intracellular cAMP concentration

Compound: Cl.Cl.NCCc1c[nH]cn1 [histamine, Histamine dihydrochloride]
- reduction of intracellular cAMP concentration (in words) [5]: not observed
- reduction of intracellular cAMP concentration (in words) [4]: intracellular cAMP concentration was decreased
- ratio of EM460/EM530 relative to the control ([4]; control = 100, absence of forskolin = 0): 35%
- decrease of intracellular cAMP concentration (in words) [6]: decrease of intracellular cAMP concentration, dependent on histamine concentration, was confirmed
- decrease of intracellular cAMP concentration (in words) [7]: decrease of intracellular cAMP concentration, dependent on histamine concentration, was confirmed

Compound: NCCc1c[nH]c2ccc(O)cc12 [serotonine]
- reduction of intracellular cAMP concentration (in words) [4]: did not reduce intracellular cAMP concentration
